Data: patent US20240158446A1, “CYCLIC COMPOUND HAVING SELECTIVE INHIBITORY ACTION ON KRAS OVER HRAS AND NRAS” (CHUGAI SEIYAKU KABUSHIKI KAISHA, priority 2021, published 2024)

Key:
[1] = target: GDP-bound HRAS wild-type protein (Homo sapiens, UniProt P01112); test: Binding to HRAS by surface plasmon resonance (SPR), Single Cycle Kinetics; details: SPR, GDP-bound HRAS wild-type protein vs GDP-bound KRAS wild-type protein
[2] = target: GDP-bound KRAS wild-type protein (Homo sapiens, UniProt P01116); test: Binding to KRAS by surface plasmon resonance (SPR), Single Cycle Kinetics; details: SPR Single Cycle Kinetics, GDP-bound KRAS wild-type protein, 1:1 binding model; read-out: KRAS KD
[3] = target: GDP-bound NRAS wild-type protein (Homo sapiens, UniProt P01111); test: Binding to NRAS by surface plasmon resonance (SPR), Single Cycle Kinetics; details: SPR, GDP-bound NRAS wild-type protein vs GDP-bound KRAS wild-type protein
Sequence of GDP-bound NRAS wild-type protein (P01111 whole entry): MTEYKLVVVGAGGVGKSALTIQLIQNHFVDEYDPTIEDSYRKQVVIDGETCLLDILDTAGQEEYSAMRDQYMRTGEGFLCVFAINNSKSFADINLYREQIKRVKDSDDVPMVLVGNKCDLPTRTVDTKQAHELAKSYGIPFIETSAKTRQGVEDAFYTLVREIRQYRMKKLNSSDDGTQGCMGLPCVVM

Sequence of GDP-bound HRAS wild-type protein (P01112 whole entry): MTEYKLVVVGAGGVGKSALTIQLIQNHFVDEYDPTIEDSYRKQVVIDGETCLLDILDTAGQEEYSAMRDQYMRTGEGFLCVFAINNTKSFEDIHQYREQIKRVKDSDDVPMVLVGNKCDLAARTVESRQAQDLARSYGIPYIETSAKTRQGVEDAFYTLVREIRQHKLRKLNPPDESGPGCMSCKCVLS
Sequence of GDP-bound KRAS wild-type protein (P01116 whole entry): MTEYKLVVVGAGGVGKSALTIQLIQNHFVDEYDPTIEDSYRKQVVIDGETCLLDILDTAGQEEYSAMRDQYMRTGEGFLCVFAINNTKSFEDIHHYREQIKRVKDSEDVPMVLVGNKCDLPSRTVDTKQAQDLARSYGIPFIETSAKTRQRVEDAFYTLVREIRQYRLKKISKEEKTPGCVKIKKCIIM

SMILES	HRAS/KRAS (ratio of KD value with respect to HRAS to KD value with respect to KRAS) [1]	Kd [2]	NRAS/KRAS (ratio of KD value with respect to NRAS to KD value with respect to KRAS) [3]
CCO[C@@H]1C[C@H]2C(=O)NC3(CCC3)C(=O)N(C)[C@@H](C3CCCC3)C(=O)N(C)[C@H](C(=O)N3CCOCC3)CC(=O)N(C)[C@@H](CC(C)C)C(=O)N[C@@H]([C@@H](C)CC)C(=O)N(C)CC(=O)N(C)[C@H]3CCCCN(C3=O)[C@@H](Cc3ccc(C(F)(F)F)cc3)C(=O)N(C)CC(=O)N[C@@H](CCc3cc(F)c(C(F)(F)F)c(F)c3)C(=O)N2C1 [PP0578]	B (a compound having 3 or more and less than 10 is denoted as B)	29 pM	B (a compound having 3 or more and less than 10 is denoted as B)
CCO[C@@H]1C[C@H]2C(=O)NC3(CCCC3)C(=O)N(C)[C@@H](C3CCCC3)C(=O)N(C)[C@H](C(=O)N(C)C)CC(=O)N(C)[C@@H](CC(C)C)C(=O)N[C@@H]([C@@H](C)CC)C(=O)N(C)CC(=O)N(C)[C@H]3CCCCN(C3=O)[C@@H](Cc3ccc(C(F)(F)F)cc3)C(=O)N(C)CC(=O)N[C@@H](CCc3cc(F)c(C(F)(F)F)c(F)c3)C(=O)N2C1 [PP0579]	B (a compound having 3 or more and less than 10 is denoted as B)	17 pM	C (A compound having a KD ratio of 0.1 or more and less than 3 is denoted as C)
CCO[C@@H]1C[C@H]2C(=O)NC3(CCC3)C(=O)N(C)[C@@H](C3CCCC3)C(=O)N(C)[C@H](C(=O)N(C)C)CC(=O)N(C)[C@@H](CC(C)C)C(=O)N[C@@H]([C@@H](C)CC)C(=O)N(C)CC(=O)N(C)[C@H]3CCCCN(C3=O)[C@@H](Cc3ccc(C(F)(F)F)cc3)C(=O)N(C)CC(=O)N[C@@H](CCc3cc(F)c(C(F)(F)F)c(F)c3)C(=O)N2C1 [PP0580]	C (A compound having a KD ratio of 0.1 or more and less than 3 is denoted as C)	15 pM	C (A compound having a KD ratio of 0.1 or more and less than 3 is denoted as C)
CC[C@H](C)[C@@H]1NC(=O)[C@H](C)N(C)C(=O)C[C@@H](C(=O)N(C)C)N(C)C(=O)[C@H](C2CCCC2)N(C)C(=O)C2(CCC2)NC(=O)[C@@H]2CCCN2C(=O)[C@H](CCc2cc(F)c(C(F)(F)F)c(F)c2)NC(=O)CN(C)C(=O)[C@H](Cc2ccc(C(F)(F)F)cc2)N2CCCC[C@@H](C2=O)N(C)C(=O)CN(C)C1=O [PP0581]	B (a compound having 3 or more and less than 10 is denoted as B)	20 pM	C (A compound having a KD ratio of 0.1 or more and less than 3 is denoted as C)
CC[C@H](C)[C@@H]1NC(=O)[C@H](C)N(C)C(=O)C[C@@H](C(=O)N2CCOCC2)N(C)C(=O)[C@H](C2CCCC2)N(C)C(=O)C2(CCC2)NC(=O)[C@@H]2CC(F)(F)CN2C(=O)[C@H](CCc2cc(F)c(C(F)(F)F)c(F)c2)NC(=O)CN(C)C(=O)[C@H](Cc2ccc(C(F)(F)F)cc2)N2CCCC[C@@H](C2=O)N(C)C(=O)CN(C)C1=O [PP0582]	B (a compound having 3 or more and less than 10 is denoted as B)	20 pM	C (A compound having a KD ratio of 0.1 or more and less than 3 is denoted as C)
CC[C@H](C)[C@@H]1NC(=O)[C@H](C)N(C)C(=O)C[C@@H](C(=O)N(C)C)N(C)C(=O)[C@H](C2CCCC2)N(C)C(=O)C2(CCCC2)NC(=O)[C@@H]2CC(F)(F)CN2C(=O)[C@H](CCc2cc(F)c(C(F)(F)F)c(F)c2)NC(=O)CN(C)C(=O)[C@H](Cc2ccc(C(F)(F)F)cc2)N2CCCC[C@@H](C2=O)N(C)C(=O)CN(C)C1=O [PP0583]	C (A compound having a KD ratio of 0.1 or more and less than 3 is denoted as C)	19 pM	C (A compound having a KD ratio of 0.1 or more and less than 3 is denoted as C)
CC[C@H](C)[C@@H]1NC(=O)[C@H](C)N(C)C(=O)C[C@@H](C(=O)N(C)C)N(C)C(=O)[C@H](C2CCCC2)N(C)C(=O)C2(CCC2)NC(=O)[C@@H]2CC(F)(F)CN2C(=O)[C@H](CCc2cc(F)c(C(F)(F)F)c(F)c2)NC(=O)CN(C)C(=O)[C@H](Cc2ccc(C(F)(F)F)cc2)N2CCCC[C@@H](C2=O)N(C)C(=O)CN(C)C1=O [PP0584]	C (A compound having a KD ratio of 0.1 or more and less than 3 is denoted as C)	7.7 pM	C (A compound having a KD ratio of 0.1 or more and less than 3 is denoted as C)
CCO[C@@H]1C[C@H]2C(=O)NC3(CCC3)C(=O)N(C)[C@@H](C3CCCC3)C(=O)N(C)[C@H](C(=O)N3CCOCC3)CC(=O)N(C)[C@@H](C)C(=O)N[C@@H]([C@@H](C)CC)C(=O)N(C)CC(=O)N(C)[C@H]3CCCCN(C3=O)[C@@H](Cc3ccc(C(F)(F)F)cc3)C(=O)N(C)CC(=O)N[C@@H](CCc3cc(F)c(C(F)(F)F)c(F)c3)C(=O)N2C1 [PP0585]	B (a compound having 3 or more and less than 10 is denoted as B)	22 pM	B (a compound having 3 or more and less than 10 is denoted as B)
CCO[C@@H]1C[C@H]2C(=O)NC3(CCCC3)C(=O)N(C)[C@@H](C3CCCC3)C(=O)N(C)[C@H](C(=O)N(C)C)CC(=O)N(C)[C@@H](C)C(=O)N[C@@H]([C@@H](C)CC)C(=O)N(C)CC(=O)N(C)[C@H]3CCCCN(C3=O)[C@@H](Cc3ccc(C(F)(F)F)cc3)C(=O)N(C)CC(=O)N[C@@H](CCc3cc(F)c(C(F)(F)F)c(F)c3)C(=O)N2C1 [PP0586]	B (a compound having 3 or more and less than 10 is denoted as B)	10 pM	C (A compound having a KD ratio of 0.1 or more and less than 3 is denoted as C)
CCO[C@@H]1C[C@H]2C(=O)NC3(CCC3)C(=O)N(C)[C@@H](C3CCCC3)C(=O)N(C)[C@H](C(=O)N(C)C)CC(=O)N(C)[C@@H](C)C(=O)N[C@@H]([C@@H](C)CC)C(=O)N(C)CC(=O)N(C)[C@H]3CCCCN(C3=O)[C@@H](Cc3ccc(C(F)(F)F)cc3)C(=O)N(C)CC(=O)N[C@@H](CCc3cc(F)c(C(F)(F)F)c(F)c3)C(=O)N2C1 [PP0587]	C (A compound having a KD ratio of 0.1 or more and less than 3 is denoted as C)	14 pM	C (A compound having a KD ratio of 0.1 or more and less than 3 is denoted as C)
CC[C@H](C)[C@@H]1NC(=O)[C@H](CC(C)C)N(CC)C(=O)C[C@@H](C(=O)N2CCOCC2)N(C)C(=O)[C@H](C2CCCC2)N(C)C(=O)C2(CCCC2)NC(=O)[C@@H]2CCCN2C(=O)[C@H](CCc2cc(F)c(C(F)(F)F)c(F)c2)NC(=O)CN(C)C(=O)[C@H](Cc2ccc(C(F)(F)F)cc2)N2CCCC[C@@H](C2=O)N(C)C(=O)CN(C)C1=O [PP0588]	B (a compound having 3 or more and less than 10 is denoted as B)	110 pM	B (a compound having 3 or more and less than 10 is denoted as B)
CC[C@H](C)[C@@H]1NC(=O)[C@H](CC(C)C)N(C)C(=O)C[C@@H](C(=O)N2CCOCC2)N(C)C(=O)[C@H](C2CCCC2)N(C)C(=O)C2(CCCC2)NC(=O)[C@H](C)N(CC)C(=O)[C@H](CCc2cc(F)c(C(F)(F)F)c(F)c2)NC(=O)CN(C)C(=O)[C@H](Cc2ccc(C(F)(F)F)cc2)N2CCCC[C@@H](C2=O)N(C)C(=O)CN(C)C1=O [PP0589]	B (a compound having 3 or more and less than 10 is denoted as B)	360 pM	B (a compound having 3 or more and less than 10 is denoted as B)
CC[C@H](C)[C@@H]1NC(=O)[C@H](CC(C)C)NC(=O)C[C@@H](C(=O)N2CCOCC2)N(C)C(=O)[C@H](C2CCCC2)N(C)C(=O)C2(CCCC2)NC(=O)[C@@H]2CCCN2C(=O)[C@H](CCc2cc(F)c(C(F)(F)F)c(F)c2)NC(=O)CN(C)C(=O)[C@H](Cc2ccc(C(F)(F)F)cc2)N2CCCC[C@@H](C2=O)N(C)C(=O)CN(C)C1=O [PP0590]	B (a compound having 3 or more and less than 10 is denoted as B)	270 pM	C (A compound having a KD ratio of 0.1 or more and less than 3 is denoted as C)
CC[C@H](C)[C@@H]1NC(=O)[C@H](CC(F)(F)F)N(C)C(=O)C[C@@H](C(=O)N2CCOCC2)N(C)C(=O)[C@H](C2CCCC2)N(C)C(=O)C2(CCCC2)NC(=O)[C@@H]2CCCN2C(=O)[C@H](CCc2cc(F)c(C(F)(F)F)c(F)c2)NC(=O)CN(C)C(=O)[C@H](Cc2ccc(C(F)(F)F)cc2)N2CCCC[C@@H](C2=O)N(C)C(=O)CN(C)C1=O [PP0594]	B (a compound having 3 or more and less than 10 is denoted as B)	73 pM	C (A compound having a KD ratio of 0.1 or more and less than 3 is denoted as C)
CC(C)C[C@H]1C(=O)N[C@@H](C2CCC2)C(=O)N(C)CC(=O)N(C)[C@H]2CCCCN(C2=O)[C@@H](Cc2ccc(C(F)(F)F)cc2)C(=O)N(C)CC(=O)N[C@@H](CCc2cc(F)c(C(F)(F)F)c(F)c2)C(=O)N2CCC[C@H]2C(=O)NC2(CCCC2)C(=O)N(C)[C@@H](C2CCCC2)C(=O)N(C)[C@H](C(=O)N2CCOCC2)CC(=O)N1C [PP0596]	B (a compound having 3 or more and less than 10 is denoted as B)	100 pM	B (a compound having 3 or more and less than 10 is denoted as B)
